# Test system: L-6 rat myocyte cytotoxicity, plate reader
# Experiment: cytotoxicity in L-6 rat myocytes, dose response, cytotoxicity control, cell-based, plate reader, cherry-pick (AID 651896)
smiles,measurement,value
C[C@@H]1CN([C@@H](C)CO)C(=O)c2cccc(NC(=O)c3ccncc3)c2O[C@H]1CN(C)Cc1ccc(Oc2ccccc2)cc1,IC50,10.8 µM

# — PubChem BioAssay AID651896 (Broad Institute, 2012)
